Six molecules from patent publication US11358959B2, “Benzothiophene and benzothiazole compounds and methods of use thereof” (Araxes Pharma LLC, priority 2017, dated 2022) can be followed below.

Molecules are shown by their SMILES.

For the assay, the target named is T1, KRAS G12C 1-169, his-tagged protein, GDP-loaded (Homo sapiens, UniProt P01116, G12C).
T1 construct: KRAS G12C 1-169, his-tagged protein, GDP-loaded; His
T1 sequence (P01116 1-169 isoform P01116-2 G12C): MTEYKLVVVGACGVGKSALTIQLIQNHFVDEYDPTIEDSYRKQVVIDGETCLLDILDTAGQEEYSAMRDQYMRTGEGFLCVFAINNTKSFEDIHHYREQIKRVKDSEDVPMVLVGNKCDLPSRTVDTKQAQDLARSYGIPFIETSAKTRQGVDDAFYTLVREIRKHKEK
Put plainly: Biochemical assay: covalent binding to KRAS G12C by mass spectrometry. The conditions noted are these: covalently bind to KRAS G12C after a thirty minute incubation period. As for the experimental part: Test compounds were prepared as 10 mM stock solutions in DMSO (Fisher cat #BP-231-100). KRAS G12C 1-169, his-tagged protein, GDP-loaded was diluted to 2 μM or 0.5 μM in buffer (20 mM Hepes, 150 mM NaCl, 1 mM MgCl2). Compounds were tested for activity as follows:
Compounds were diluted to 50× final test concentration in DMSO in 96-well storage plates. Compound stock solutions were vortexed before use and observed carefully for any sign of precipitation. Dilutions were as follow: • For 100 μM final compound concentration, compounds were diluted to 5000 μM (5 μL 10 mM compound stock+5 μL DMSO and mixed well by pipetting. • For 30 […] final compound concentration, compounds were diluted to 1500 μM (3 μL 10 mM compound stock+17 μL DMSO) and mixed well by pipetting. • For 10 μM final compound concentration, compounds were diluted to 500 μM (2 μL 10 mM compound stock+38 μL DMSO) and mixed well by pipetting. 49 μL of the stock protein solution was added to each well of a 96-well PCR plate (Fisher cat #1423027). 1 μl of the diluted 50× compounds were added to appropriate wells in the PCR plate using 12-channel pipettor. Reactions were mixed carefully and thoroughly by pipetting up/down with a 200 μL multi-channel pipettor. The plate was sealed well with aluminum plate seal, and stored in drawer at room temperature for 10 minutes, 30 minutes, 2 hours or 24 hours. 5 μL of 2% formic acid (Fisher cat #A117) in de-ionized H2O was then added to each well followed by mixing with a pipette. The plate was then resealed with aluminum seal and stored on dry ice until analyzed as described below.
The above described assays were analyzed by mass spectrometry according to one of the following two procedures:
The MS instrument is set to positive polarity, 2 GHz resolution, and low mass (1700) mode and allowed to equilibrate for 30 minutes. The instrument is then calibrated, switched to acquisition mode and the appropriate method loaded.
After another 30 minute equilibration time, a blank batch (i.e., buffer) is run to ensure equipment is operating properly. The samples are thawed at 37° C. for 10 minutes, briefly centrifuged, and transfer to the bench top. Wells A1 and H12 are spiked with 1 μL 500 μM internal standard peptide, and the plates centrifuged at 2000×g for 5 minutes. The method is then run and masses of each individual well recorded.
The masses (for which integration data is desired) for each well are pasted into the platemap and exported from the analysis. Masses for the internal standards are exported as well. The data at 50 ppm is extracted for the +19 charge state, and identity of well A1 is assigned using the internal standard spike and integrated. Peak data is exported as a TOF list and the above steps are repeated individually, for the +20, 21, 22, 23, 24, and 25 charge states.
The masses and peak intensities of KRAS G12C protein species were measured using a Dionex RSLCnano system (Thermo Scientific) connected to a Q Exactive Plus mass spectrometer (Thermo Scientific).
[…] of sample was each loaded onto a Aeris™ 3.6 μm WIDEPORE C4 200 Å, LC Column 50×2.1 mm column maintained at 40° C. at a flow rate of 600 μL/min with 20% Solvent A (0.1% formic acid in H2O) and 80% Solvent B (0.1% formic acid in acetonitrile). The liquid chromatography conditions were 20% solvent B for 1 minute, 20% to 60% solvent B for 1.5 minutes, 60% to 90% solvent for 0.5 minute, 90% solvent B for 0.2 minute, 90% to 20% solvent B for 0.2 minute, and then equilibrated for 1.6 minute before the following sample injection. The flow rate was maintained at 600 μL/min throughout the sample analysis.
The mass spectrometer was operated in profile mode at a resolution of 17500, 5 microscans, using 50 msec max injection time and an AGC target of 1×10^6, and a full mass range from 800-1850 m/z was recorded. The HCD trapping gas was optimized for maximum sensitivity for intact proteins. […]
For `C=CC(=O)N1CC(c2ccc3cc(-c4cc(O)cc5ccccc45)sc3c2)C1` [Compound 1, 1-(3-(2-(3-hydroxynaphthalen-1-yl)benzo[b]thiophen-6-yl)azetidin-1-yl)prop-2-en-1-one], the Binding % result is “+++ (+++ indicates binding activity greater than 50%)”.

Take `C=CC(=O)N1CC(c2ccc3cc(-c4c(C)ccc5[nH]ncc45)sc3c2)C1` [Compound 2, 1-(3-(2-(5-methyl-1H-indazol-4-yl)benzo[b]thiophen-6-yl)azetidin-1-yl)prop-2-en-1-one]: the Binding % result is recorded as “++ (++ indicates binding activity from 10 to 50%)”.

Consider `C=CC(=O)N1CC(c2ccc3nc(-c4c(C)ccc5[nH]ncc45)sc3c2)C1` [Compound 3, 1-(3-(2-(5-methyl-1H-indazol-4-yl)benzo[d]thiazol-6-yl)azetidin-1-yl)prop-2-en-1-one], for which the Binding % result is listed as “+ (+ indicates binding activity up to 10%)”.

Turning to `C=CC(=O)N1CC(c2ccc3nc(-c4cc(O)cc5ccccc45)sc3c2)C1` [Compound 4, 1-(3-(2-(3-hydroxynaphthalen-1-yl)benzo[d]thiazol-6-yl)azetidin-1-yl)prop-2-en-1-on], the Binding % result was “+++ (+++ indicates binding activity greater than 50%)”.

On to `C=CC(=O)N1CC(c2ccc3nc(-c4cc(O)cc5ccccc45)oc3c2)C1` [Compound 5, 1-(3-(2-(3-hydroxynaphthalen-1-yl)benzo[d]oxazol-6-yl)azetidin-1-yl)prop-2-en-1-one], for which the Binding % result is “+++ (+++ indicates binding activity greater than 50%)”.

Regarding `C=CC(=O)N1CC(c2ccc3nc(-c4c(C)ccc5[nH]ncc45)oc3c2)C1` [Compound 6, 1-(3-(2-(5-methyl-1H-indazol-4-yl)benzo[d]oxazol-6-yl)azetidin-1-yl)prop-2-en-1-one], the Binding % entry is given as “++ (++ indicates binding activity from 10 to 50%)”.
